Assay results taken from ChEMBL document CHEMBL1138100 (Bioorg Med Chem Lett, 2006).

The molecules below were run against Inosine-5'-monophosphate dehydrogenase 1 (Homo sapiens, UniProt P20839) (assay: Inhibition of human IMPDH1).
Inosine-5'-monophosphate dehydrogenase 1, sequence (P20839 whole entry): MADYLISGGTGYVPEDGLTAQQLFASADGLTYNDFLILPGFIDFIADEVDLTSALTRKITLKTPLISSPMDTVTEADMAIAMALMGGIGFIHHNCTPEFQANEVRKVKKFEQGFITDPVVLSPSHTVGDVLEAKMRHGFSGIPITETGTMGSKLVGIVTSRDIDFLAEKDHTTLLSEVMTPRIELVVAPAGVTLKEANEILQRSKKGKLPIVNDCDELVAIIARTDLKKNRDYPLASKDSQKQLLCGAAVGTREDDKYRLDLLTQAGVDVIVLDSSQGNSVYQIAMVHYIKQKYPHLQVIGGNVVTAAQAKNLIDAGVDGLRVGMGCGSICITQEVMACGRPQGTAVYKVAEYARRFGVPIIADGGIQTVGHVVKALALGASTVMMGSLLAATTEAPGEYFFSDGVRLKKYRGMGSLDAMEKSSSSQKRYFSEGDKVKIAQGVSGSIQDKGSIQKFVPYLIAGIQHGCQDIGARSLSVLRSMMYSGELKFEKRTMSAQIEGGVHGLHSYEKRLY

IC50 [nM]	SMILES
38	CCc1c(C)c2c(c(O)c1C/C=C(\C)COCP(=O)(O)O)C(=O)OC2
37	CCc1c(C)c2c(c(O)c1C/C=C(\C)CNCCP(=O)(O)O)C(=O)OC2
71	CCc1c(C)c2c(c(O)c1C/C=C(\C)CP(=O)(O)O)C(=O)OC2
32	COc1c(C)c2c(c(O)c1C/C=C(\C)CCC(=O)O)C(=O)OC2 [MYCOPHENOLIC ACID]

These molecules were tested against Inosine-5'-monophosphate dehydrogenase (IMPDH) (Homo sapiens) (UniProt P20839+P12268) (assay: Selectivity for IMPDH1 over IMPDH2).
Inosine-5'-monophosphate dehydrogenase (IMPDH) (Homo sapiens), sequence (P20839 whole entry, looked up, other chains not shown): as the sequence (P20839 whole entry) above
Type: protein assay

Selectivity ratio	SMILES
1.7	CCc1c(C)c2c(c(O)c1C/C=C(\C)COCP(=O)(O)O)C(=O)OC2
2.8	CCc1c(C)c2c(c(O)c1C/C=C(\C)CNCCP(=O)(O)O)C(=O)OC2
3.6	CCc1c(C)c2c(c(O)c1C/C=C(\C)CP(=O)(O)O)C(=O)OC2

These molecules were tested against Inosine-5'-monophosphate dehydrogenase 2 (Homo sapiens, UniProt P12268) (assay: Inhibition of human IMPDH2).

SMILES	IC50 [nM]
CCc1c(C)c2c(c(O)c1C/C=C(\C)COCP(=O)(O)O)C(=O)OC2	23
CCc1c(C)c2c(c(O)c1C/C=C(\C)CNCCP(=O)(O)O)C(=O)OC2	13
CCc1c(C)c2c(c(O)c1C/C=C(\C)CN(C)CCP(=O)(O)O)C(=O)OC2	132
COc1c(C)c2c(c(O)c1C/C=C(\C)CCP(=O)(O)O)C(=O)OC2	96
CCc1c(C)c2c(c(O)c1C/C=C(\C)CP(=O)(O)O)C(=O)OC2	20
COc1c(C)c2c(c(O)c1C/C=C(\C)CNCCP(=O)(O)O)C(=O)OC2	499
COc1c(C)c2c(c(O)c1CC=C(C)C)C(=O)OC2	254
COc1c(C)c2c(c(O)c1C/C=C(\C)CN(CCP(=O)(O)O)C(C)=O)C(=O)OC2	785
CCc1c(C)c2c(c(O)c1C/C=C(\C)CN(CCP(=O)(O)O)S(C)(=O)=O)C(=O)OC2	68
COc1c(C)c2c(c(O)c1C/C=C(\C)CN(C=O)CCP(=O)(O)O)C(=O)OC2	749
COc1c(C)c2c(c(O)c1C/C=C(\C)CP(=O)(OC)OC)C(=O)OC2	289
COc1c(C)c2c(c(O)c1C/C=C(\C)CCCP(=O)(O)O)C(=O)OC2	86

Results, then the molecule that gave them:

IC50 [nM]	SMILES
24	CCc1c(C)c2c(c(O)c1C/C=C(\C)CN(CCP(=O)(O)O)S(N)(=O)=O)C(=O)OC2
246	COc1c(C)c2c(c(O)c1C/C=C(\C)COCP(=O)(O)O)C(=O)OC2
> 1000	COc1c(C)c2c(c(O)c1C/C=C(\C)CN(C)CCP(=O)(O)O)C(=O)OC2
> 1000	COc1c(C)c2c(c(O)c1C/C=C(\C)CNCP(=O)(O)O)C(=O)OC2
273	COC/C(C)=C/Cc1c(O)c2c(c(C)c1OC)COC2=O
506	COc1c(C)c2c(c(O)c1C/C=C(C)/C=C/P(=O)(O)O)C(=O)OC2
93	COc1c(C)c2c(c(O)c1C/C=C(\C)CN(CCP(=O)(O)O)S(N)(=O)=O)C(=O)OC2
498	COc1c(C)c2c(c(O)c1C/C=C(\C)CN(CCP(=O)(O)O)S(C)(=O)=O)C(=O)OC2
> 1000	CCOP(=O)(CCNC/C(C)=C/Cc1c(O)c2c(c(C)c1OC)COC2=O)OCC
168	COc1c(C)c2c(c(O)c1C/C=C(\C)CP(=O)(O)O)C(=O)OC2
